In patent US10231954B2, “Neurodegenerative therapies” (LYTIX BIOPHARMA AS, priority 2014, dated 2019):
Read-outs that look alike come from different tables or passages of the source.

Tests used:
Type in all cases: biochemical
DAPK1 = DAPK1 (Homo sapiens, UniProt P53355); test: Kinase profiling DAPK1; details: for remaining activity at 100 µM: read-out: residual kinase activity, DAPK1
Source text: (§1) Any value less that 25 is considered to be highly significant inhibition.

MEKK1 = MEKK1 (Homo sapiens, UniProt Q13233); test: Kinase profiling MEKK1; details: for remaining activity at 100 µM: read-out: residual kinase activity, MEKK1
Chain of MEKK1 (Q13233 whole entry, species assumed): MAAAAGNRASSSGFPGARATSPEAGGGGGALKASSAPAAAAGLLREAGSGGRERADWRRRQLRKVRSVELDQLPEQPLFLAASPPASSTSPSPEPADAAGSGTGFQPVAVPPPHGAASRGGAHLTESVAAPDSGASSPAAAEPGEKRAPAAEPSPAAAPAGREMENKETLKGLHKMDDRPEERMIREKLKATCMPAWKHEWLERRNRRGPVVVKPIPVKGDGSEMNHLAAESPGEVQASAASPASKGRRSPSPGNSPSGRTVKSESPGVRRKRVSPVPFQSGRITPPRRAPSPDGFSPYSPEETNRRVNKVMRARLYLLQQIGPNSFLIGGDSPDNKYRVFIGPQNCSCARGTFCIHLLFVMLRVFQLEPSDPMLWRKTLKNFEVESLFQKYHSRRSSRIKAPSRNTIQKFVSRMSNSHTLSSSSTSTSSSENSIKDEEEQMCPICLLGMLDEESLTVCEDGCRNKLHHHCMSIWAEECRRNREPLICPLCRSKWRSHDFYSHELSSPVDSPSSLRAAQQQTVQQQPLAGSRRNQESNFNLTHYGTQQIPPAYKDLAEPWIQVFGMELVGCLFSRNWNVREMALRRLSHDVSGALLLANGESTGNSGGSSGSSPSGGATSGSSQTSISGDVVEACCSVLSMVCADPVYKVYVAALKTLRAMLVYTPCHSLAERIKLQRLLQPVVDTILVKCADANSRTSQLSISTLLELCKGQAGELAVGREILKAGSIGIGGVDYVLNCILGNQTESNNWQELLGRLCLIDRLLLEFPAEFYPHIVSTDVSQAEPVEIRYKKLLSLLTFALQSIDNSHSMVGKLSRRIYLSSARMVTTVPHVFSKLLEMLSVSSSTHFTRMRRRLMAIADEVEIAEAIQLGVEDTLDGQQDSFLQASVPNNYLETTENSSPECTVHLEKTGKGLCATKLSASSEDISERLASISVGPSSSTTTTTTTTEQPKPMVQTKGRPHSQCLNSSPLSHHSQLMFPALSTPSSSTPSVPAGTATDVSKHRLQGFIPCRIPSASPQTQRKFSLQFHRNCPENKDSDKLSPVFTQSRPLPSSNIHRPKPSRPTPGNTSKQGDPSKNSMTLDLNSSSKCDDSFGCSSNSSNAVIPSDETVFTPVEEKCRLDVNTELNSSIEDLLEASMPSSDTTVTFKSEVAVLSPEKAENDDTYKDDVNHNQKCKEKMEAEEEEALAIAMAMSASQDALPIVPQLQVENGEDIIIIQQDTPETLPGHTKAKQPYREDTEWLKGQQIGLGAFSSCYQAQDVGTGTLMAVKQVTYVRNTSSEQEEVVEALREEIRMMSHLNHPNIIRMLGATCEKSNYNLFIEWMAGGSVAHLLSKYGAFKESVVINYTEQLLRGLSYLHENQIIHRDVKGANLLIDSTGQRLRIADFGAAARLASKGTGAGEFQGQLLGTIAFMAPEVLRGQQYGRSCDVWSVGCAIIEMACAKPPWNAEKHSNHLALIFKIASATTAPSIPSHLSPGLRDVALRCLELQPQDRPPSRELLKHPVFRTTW
Source text: as §1

AMPK = test: Kinase profiling AMPK
Source text: as §1

PIM2 = PIM2 (Homo sapiens, UniProt Q9P1W9); test: Kinase profiling PIM2; details: for remaining activity at 100 µM: read-out: residual kinase activity, PIM2
Chain of PIM2 (Q9P1W9 whole entry, species assumed): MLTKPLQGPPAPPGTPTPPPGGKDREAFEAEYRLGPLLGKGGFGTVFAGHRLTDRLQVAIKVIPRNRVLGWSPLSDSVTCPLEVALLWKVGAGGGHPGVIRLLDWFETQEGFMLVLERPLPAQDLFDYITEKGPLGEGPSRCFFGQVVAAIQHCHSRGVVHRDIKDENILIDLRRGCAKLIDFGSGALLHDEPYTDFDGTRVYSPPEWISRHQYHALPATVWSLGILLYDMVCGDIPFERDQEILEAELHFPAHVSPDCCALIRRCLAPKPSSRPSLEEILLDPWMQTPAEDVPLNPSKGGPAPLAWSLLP
Source text: as §1

SIK2 = SIK2 (Homo sapiens, UniProt Q9H0K1); test: Kinase profiling SIK2; details: for remaining activity at 100 µM: read-out: residual kinase activity, SIK2
Source text: as §1

CSK = CSK (Homo sapiens, UniProt P41240); test: Kinase profiling CSK; details: for remaining activity at 100 µM: read-out: residual kinase activity, CSK
Source text: as §1

BRSK2 = biological target: T1, BRSK2 (Homo sapiens, UniProt Q8IWQ3); test: Kinase profiling BRSK2; details: for remaining activity at 100 µM: read-out: residual kinase activity, BRSK2
T1 sequence (Q8IWQ3 1-736): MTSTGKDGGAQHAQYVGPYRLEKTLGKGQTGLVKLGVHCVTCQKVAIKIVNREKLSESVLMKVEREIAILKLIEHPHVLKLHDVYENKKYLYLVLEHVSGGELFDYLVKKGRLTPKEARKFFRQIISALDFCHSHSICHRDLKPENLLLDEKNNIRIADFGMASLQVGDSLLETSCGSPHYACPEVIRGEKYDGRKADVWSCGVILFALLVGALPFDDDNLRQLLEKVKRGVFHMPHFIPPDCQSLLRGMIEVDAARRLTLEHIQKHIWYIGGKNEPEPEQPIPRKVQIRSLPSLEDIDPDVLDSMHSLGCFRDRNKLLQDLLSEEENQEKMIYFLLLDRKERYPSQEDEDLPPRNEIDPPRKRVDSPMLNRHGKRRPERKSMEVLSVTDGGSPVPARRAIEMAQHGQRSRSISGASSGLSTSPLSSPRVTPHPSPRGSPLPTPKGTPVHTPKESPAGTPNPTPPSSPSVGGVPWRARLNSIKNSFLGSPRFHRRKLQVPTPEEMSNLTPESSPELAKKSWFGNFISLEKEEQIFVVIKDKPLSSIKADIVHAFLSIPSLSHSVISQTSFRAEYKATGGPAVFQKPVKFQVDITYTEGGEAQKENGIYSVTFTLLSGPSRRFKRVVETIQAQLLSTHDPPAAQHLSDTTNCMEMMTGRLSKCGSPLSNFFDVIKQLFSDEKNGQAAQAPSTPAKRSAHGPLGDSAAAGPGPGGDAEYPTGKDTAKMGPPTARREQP
Source text: as §1

MNK1 = MNK1 (Homo sapiens, UniProt Q9BUB5); test: Kinase profiling MNK1; details: for remaining activity at 100 µM: read-out: residual kinase activity, MNK1
Chain of MNK1 (Q9BUB5 whole entry, species assumed): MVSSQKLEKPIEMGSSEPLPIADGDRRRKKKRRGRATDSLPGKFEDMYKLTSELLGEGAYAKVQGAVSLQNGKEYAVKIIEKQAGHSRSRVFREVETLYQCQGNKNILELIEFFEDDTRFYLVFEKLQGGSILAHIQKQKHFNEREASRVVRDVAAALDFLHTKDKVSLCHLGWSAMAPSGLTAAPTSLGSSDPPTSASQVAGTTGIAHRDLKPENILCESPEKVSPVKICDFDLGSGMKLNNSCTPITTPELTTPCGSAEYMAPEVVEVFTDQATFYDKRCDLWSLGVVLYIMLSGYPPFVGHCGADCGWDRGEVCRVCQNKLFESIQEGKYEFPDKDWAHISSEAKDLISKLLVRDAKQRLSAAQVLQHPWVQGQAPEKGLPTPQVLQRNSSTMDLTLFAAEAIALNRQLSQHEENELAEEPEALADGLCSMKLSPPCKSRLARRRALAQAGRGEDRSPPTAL
Source text: as §1

MST4 = MST4 (Homo sapiens, UniProt Q9P289); test: Kinase profiling MST4; details: for remaining activity at 100 µM: read-out: residual kinase activity, MST4
Chain of MST4 (Q9P289 whole entry, species assumed): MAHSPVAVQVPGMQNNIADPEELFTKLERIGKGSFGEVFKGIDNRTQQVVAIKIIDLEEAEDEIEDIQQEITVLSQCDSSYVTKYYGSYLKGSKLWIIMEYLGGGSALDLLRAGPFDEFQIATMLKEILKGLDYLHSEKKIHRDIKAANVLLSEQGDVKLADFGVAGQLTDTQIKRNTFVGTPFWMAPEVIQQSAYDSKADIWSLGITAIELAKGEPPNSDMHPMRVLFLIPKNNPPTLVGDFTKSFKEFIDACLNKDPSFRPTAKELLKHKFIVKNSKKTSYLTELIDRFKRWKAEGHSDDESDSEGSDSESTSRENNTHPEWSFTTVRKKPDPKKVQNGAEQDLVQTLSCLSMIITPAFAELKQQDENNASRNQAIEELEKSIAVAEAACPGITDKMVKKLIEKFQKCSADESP
Source text: as §1

MLK1 = MLK1 (Homo sapiens, UniProt P80192); test: Kinase profiling MLK1; details: for remaining activity at 100 µM: read-out: residual kinase activity, MLK1
Source text: as §1

IKKb = biological target: T2, IKKb (Homo sapiens, UniProt O14920); test: Kinase profiling IKKb; details: for remaining activity at 100 µM: read-out: residual kinase activity, IKKb
T2 sequence (O14920 1-756): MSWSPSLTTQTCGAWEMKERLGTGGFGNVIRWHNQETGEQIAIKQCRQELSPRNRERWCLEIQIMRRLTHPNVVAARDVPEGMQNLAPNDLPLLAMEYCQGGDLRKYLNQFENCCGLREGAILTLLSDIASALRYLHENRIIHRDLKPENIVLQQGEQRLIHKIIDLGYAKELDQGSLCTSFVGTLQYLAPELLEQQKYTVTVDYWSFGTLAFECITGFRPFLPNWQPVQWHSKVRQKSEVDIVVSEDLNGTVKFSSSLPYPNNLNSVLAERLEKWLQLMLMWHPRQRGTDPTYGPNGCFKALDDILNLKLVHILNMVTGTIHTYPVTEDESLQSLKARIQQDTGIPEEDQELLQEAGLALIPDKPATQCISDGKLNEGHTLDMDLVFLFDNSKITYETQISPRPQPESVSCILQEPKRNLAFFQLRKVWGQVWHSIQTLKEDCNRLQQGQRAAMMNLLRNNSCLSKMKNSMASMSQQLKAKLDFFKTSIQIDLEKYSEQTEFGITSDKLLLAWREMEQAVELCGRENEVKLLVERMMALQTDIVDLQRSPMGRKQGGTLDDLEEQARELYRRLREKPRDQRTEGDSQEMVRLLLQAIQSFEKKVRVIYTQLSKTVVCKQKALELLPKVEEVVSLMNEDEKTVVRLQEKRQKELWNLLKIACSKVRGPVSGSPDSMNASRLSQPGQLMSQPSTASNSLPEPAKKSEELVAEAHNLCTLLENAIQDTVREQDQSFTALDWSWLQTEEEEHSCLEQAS
Source text: as §1

BRK = BRK (Homo sapiens, UniProt Q13882); test: Kinase profiling BRK; details: for remaining activity at 100 µM: read-out: residual kinase activity, BRK
Chain of BRK (Q13882 whole entry, species assumed): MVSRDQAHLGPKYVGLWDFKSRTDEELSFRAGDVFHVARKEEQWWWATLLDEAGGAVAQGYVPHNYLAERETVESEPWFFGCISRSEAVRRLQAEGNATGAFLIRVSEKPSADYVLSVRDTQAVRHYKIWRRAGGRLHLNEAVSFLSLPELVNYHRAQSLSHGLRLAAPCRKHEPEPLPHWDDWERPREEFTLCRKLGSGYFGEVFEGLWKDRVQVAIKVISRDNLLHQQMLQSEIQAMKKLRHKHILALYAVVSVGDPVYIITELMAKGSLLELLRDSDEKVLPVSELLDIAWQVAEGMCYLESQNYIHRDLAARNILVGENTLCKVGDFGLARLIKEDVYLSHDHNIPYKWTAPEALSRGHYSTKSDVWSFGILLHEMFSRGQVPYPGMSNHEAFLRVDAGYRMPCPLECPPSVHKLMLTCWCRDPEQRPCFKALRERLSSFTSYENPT
Source text: as §1

CDK9-Cyclin T1 = CDK9-Cyclin T1 (Homo sapiens, UniProt P50750); test: Kinase profiling CDK9-Cyclin T1; details: for remaining activity at 100 µM: read-out: residual kinase activity, CDK9-Cyclin T1
Source text: as §1

MINK1 = MINK1 (Homo sapiens, UniProt Q8N4C8); test: Kinase profiling MINK1; details: for remaining activity at 100 µM: read-out: residual kinase activity, MINK1
Chain of MINK1 (Q8N4C8 whole entry, species assumed): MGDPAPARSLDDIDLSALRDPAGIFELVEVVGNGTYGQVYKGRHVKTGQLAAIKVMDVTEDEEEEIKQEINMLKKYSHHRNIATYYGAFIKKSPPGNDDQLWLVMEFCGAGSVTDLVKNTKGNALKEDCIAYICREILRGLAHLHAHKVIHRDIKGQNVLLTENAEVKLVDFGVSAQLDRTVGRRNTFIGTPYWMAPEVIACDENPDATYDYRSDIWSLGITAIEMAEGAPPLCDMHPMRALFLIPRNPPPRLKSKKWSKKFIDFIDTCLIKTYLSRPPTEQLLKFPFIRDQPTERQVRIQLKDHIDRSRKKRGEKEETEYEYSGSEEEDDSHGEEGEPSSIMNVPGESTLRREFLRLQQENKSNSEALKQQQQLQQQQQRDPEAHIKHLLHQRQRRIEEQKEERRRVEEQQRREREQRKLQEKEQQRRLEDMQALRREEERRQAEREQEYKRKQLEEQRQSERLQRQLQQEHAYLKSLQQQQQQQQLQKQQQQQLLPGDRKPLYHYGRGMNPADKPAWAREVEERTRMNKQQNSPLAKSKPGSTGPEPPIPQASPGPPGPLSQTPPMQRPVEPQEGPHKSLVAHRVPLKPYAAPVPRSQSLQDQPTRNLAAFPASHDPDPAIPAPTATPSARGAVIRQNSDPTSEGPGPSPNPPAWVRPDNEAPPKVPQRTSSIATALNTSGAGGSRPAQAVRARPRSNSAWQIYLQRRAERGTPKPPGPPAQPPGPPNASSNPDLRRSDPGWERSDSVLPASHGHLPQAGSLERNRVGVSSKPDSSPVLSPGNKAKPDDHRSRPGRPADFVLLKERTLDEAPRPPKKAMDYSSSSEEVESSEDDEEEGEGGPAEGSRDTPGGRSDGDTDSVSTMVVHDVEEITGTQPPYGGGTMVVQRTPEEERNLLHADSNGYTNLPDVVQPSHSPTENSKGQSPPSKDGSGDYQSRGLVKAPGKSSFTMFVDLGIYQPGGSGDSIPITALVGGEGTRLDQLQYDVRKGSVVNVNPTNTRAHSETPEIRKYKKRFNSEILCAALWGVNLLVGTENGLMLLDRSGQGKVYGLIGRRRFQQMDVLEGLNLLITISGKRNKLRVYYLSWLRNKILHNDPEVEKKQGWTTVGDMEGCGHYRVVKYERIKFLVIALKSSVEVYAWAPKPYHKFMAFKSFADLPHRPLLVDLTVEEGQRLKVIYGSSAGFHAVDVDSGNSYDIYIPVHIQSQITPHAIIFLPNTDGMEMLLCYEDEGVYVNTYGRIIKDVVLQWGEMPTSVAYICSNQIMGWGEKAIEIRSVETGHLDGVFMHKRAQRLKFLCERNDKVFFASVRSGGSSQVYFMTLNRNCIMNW
Source text: as §1

CK1γ2 = CK1γ2 (Homo sapiens, UniProt P78368); test: Kinase profiling CK1γ2; details: for remaining activity at 100 µM: read-out: residual kinase activity, CK1γ2
Chain of CK1γ2 (P78368 whole entry): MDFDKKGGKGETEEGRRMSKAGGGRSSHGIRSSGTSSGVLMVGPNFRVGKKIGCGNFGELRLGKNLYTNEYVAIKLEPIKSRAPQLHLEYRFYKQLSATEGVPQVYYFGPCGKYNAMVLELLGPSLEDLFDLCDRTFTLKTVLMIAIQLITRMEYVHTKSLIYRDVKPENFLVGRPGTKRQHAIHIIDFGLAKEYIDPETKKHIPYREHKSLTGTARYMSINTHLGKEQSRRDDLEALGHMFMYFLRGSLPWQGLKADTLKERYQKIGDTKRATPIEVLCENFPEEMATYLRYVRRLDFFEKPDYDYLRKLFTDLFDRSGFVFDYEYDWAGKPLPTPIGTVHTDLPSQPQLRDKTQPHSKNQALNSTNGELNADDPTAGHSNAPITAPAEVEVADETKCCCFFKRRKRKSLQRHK
Source text: as §1

[1] = 100 micromolar inhibitor, 100 = no change
[2] = 100 micromolar inhibitor concentration, 100 is no change

CC(=O)Nc1cccc(NC(=O)c2nc3ccc(O)cc3s2)c1 [Compound 03-07, N-(3-acetamidophenyl)-6-hydroxybenzo[d]thiazole-2-carboxamide]
remaining activity at 100 µM (DAPK1; [1]): 28% | remaining activity at 100 µM (MEKK1; [1]): 115% | residual kinase activity, AMPK (AMPK; [1]): 76 | remaining activity at 100 µM (PIM2; [1]): 61% | remaining activity at 100 µM (SIK2; [1]): 28% | remaining activity at 100 µM (CSK; [1]): 105% | remaining activity at 100 µM (BRSK2; [1]): 66% | remaining activity at 100 µM (MNK1; [1]): 40% | remaining activity at 100 µM (MST4; [1]): 76% | remaining activity at 100 µM (MLK1; [1]): 26% | remaining activity at 100 µM (IKKb; [1]): 88% | remaining activity at 100 µM (BRK; [1]): 80% | remaining activity at 100 µM (CDK9-Cyclin T1; [1]): 76% | remaining activity at 100 µM (MINK1; [1]): 18% | remaining activity at 100 µM (CK1γ2; [1]): 77%

O=C(Nc1nc2cc(O)ccc2s1)c1cccnc1 [Compound 03-33]
residual kinase activity, DAPK1 (DAPK1; [2]): 82 | residual kinase activity, MEKK1 (MEKK1; [2]): 107 | residual kinase activity, AMPK (AMPK; [2]): 91 | residual kinase activity, PIM2 (PIM2; [2]): 69 | residual kinase activity, SIK2 (SIK2; [2]): 69 | residual kinase activity, CSK (CSK; [2]): 88 | residual kinase activity, BRSK2 (BRSK2; [2]): 82 | residual kinase activity, MNK1 (MNK1; [2]): 21 | residual kinase activity, MST4 (MST4; [2]): 103 | residual kinase activity, MLK1 (MLK1; [2]): 61 | residual kinase activity, IKKb (IKKb; [2]): 81 | residual kinase activity, BRK (BRK; [2]): 46 | residual kinase activity, CDK9-Cyclin T1 (CDK9-Cyclin T1; [2]): 97 | residual kinase activity, MINK1 (MINK1; [2]): 51 | residual kinase activity, CK1γ2 (CK1γ2; [2]): 25

O=C(Nc1nc2ccc(O)cc2s1)c1ccccc1 [Compound 03-60]
residual kinase activity, DAPK1 (DAPK1; [2]): 19 | residual kinase activity, MEKK1 (MEKK1; [2]): 105 | residual kinase activity, AMPK (AMPK; [2]): 30 | residual kinase activity, PIM2 (PIM2; [2]): 67 | residual kinase activity, SIK2 (SIK2; [2]): 26 | residual kinase activity, CSK (CSK; [2]): 69 | residual kinase activity, BRSK2 (BRSK2; [2]): 34 | residual kinase activity, MNK1 (MNK1; [2]): 18 | residual kinase activity, MST4 (MST4; [2]): 71 | residual kinase activity, MLK1 (MLK1; [2]): 5 | residual kinase activity, IKKb (IKKb; [2]): 87 | residual kinase activity, BRK (BRK; [2]): 14 | residual kinase activity, CDK9-Cyclin T1 (CDK9-Cyclin T1; [2]): 76 | residual kinase activity, MINK1 (MINK1; [2]): 7 | residual kinase activity, CK1γ2 (CK1γ2; [2]): 3

CC(=O)Nc1nc2ccc(C(F)(F)F)cc2s1 [Compound 01-90]
remaining activity at 100 µM (DAPK1; [2]): 85% | remaining activity at 100 µM (MEKK1; [2]): 90% | residual kinase activity, AMPK (AMPK; [2]): 90 | remaining activity at 100 µM (PIM2; [2]): 94% | remaining activity at 100 µM (SIK2; [2]): 72% | remaining activity at 100 µM (CSK; [2]): 61% | remaining activity at 100 µM (BRSK2; [2]): 64% | remaining activity at 100 µM (MNK1; [2]): 65% | remaining activity at 100 µM (MST4; [2]): 89% | remaining activity at 100 µM (MLK1; [2]): 39% | remaining activity at 100 µM (IKKb; [2]): 75% | remaining activity at 100 µM (BRK; [2]): 99% | remaining activity at 100 µM (CDK9-Cyclin T1; [2]): 26% | remaining activity at 100 µM (MINK1; [2]): 35% | remaining activity at 100 µM (CK1γ2; [2]): 59%

O=C(Nc1nc2ccc(O)cc2s1)c1ccncc1 [Compound 08-42]
residual kinase activity, DAPK1 (DAPK1; [2]): 32 | residual kinase activity, MEKK1 (MEKK1; [2]): 76 | residual kinase activity, AMPK (AMPK; [2]): 61 | residual kinase activity, PIM2 (PIM2; [2]): 90 | residual kinase activity, SIK2 (SIK2; [2]): 82 | residual kinase activity, CSK (CSK; [2]): 89 | residual kinase activity, BRSK2 (BRSK2; [2]): 74 | residual kinase activity, MNK1 (MNK1; [2]): 53 | residual kinase activity, MST4 (MST4; [2]): 79 | residual kinase activity, MLK1 (MLK1; [2]): 33 | residual kinase activity, IKKb (IKKb; [2]): 82 | residual kinase activity, BRK (BRK; [2]): 43 | residual kinase activity, CDK9-Cyclin T1 (CDK9-Cyclin T1; [2]): 66 | residual kinase activity, MINK1 (MINK1; [2]): 37 | residual kinase activity, CK1γ2 (CK1γ2; [2]): 62

O=C(Nc1nc2cc(O)ccc2s1)c1ccccn1 [Compound 03-13]
residual kinase activity, DAPK1 (DAPK1; [2]): 58 | residual kinase activity, MEKK1 (MEKK1; [2]): 114 | residual kinase activity, AMPK (AMPK; [2]): 80 | residual kinase activity, PIM2 (PIM2; [2]): 77 | residual kinase activity, SIK2 (SIK2; [2]): 96 | residual kinase activity, CSK (CSK; [2]): 95 | residual kinase activity, BRSK2 (BRSK2; [2]): 80 | residual kinase activity, MNK1 (MNK1; [2]): 100 | residual kinase activity, MST4 (MST4; [2]): 76 | residual kinase activity, MLK1 (MLK1; [2]): 68 | residual kinase activity, IKKb (IKKb; [2]): 88 | residual kinase activity, BRK (BRK; [2]): 94 | residual kinase activity, CDK9-Cyclin T1 (CDK9-Cyclin T1; [2]): 93 | residual kinase activity, MINK1 (MINK1; [2]): 31 | residual kinase activity, CK1γ2 (CK1γ2; [2]): 83

COc1ccc2sc(NC(C)=O)nc2c1 [Compound 03-21]
remaining activity at 100 µM (DAPK1; [2]): 79% | remaining activity at 100 µM (MEKK1; [2]): 113% | residual kinase activity, AMPK (AMPK; [2]): 100 | remaining activity at 100 µM (PIM2; [2]): 48% | remaining activity at 100 µM (SIK2; [2]): 89% | remaining activity at 100 µM (CSK; [2]): 104% | remaining activity at 100 µM (BRSK2; [2]): 95% | remaining activity at 100 µM (MNK1; [2]): 77% | remaining activity at 100 µM (MST4; [2]): 88% | remaining activity at 100 µM (MLK1; [2]): 84% | remaining activity at 100 µM (IKKb; [2]): 98% | remaining activity at 100 µM (BRK; [2]): 62% | remaining activity at 100 µM (CDK9-Cyclin T1; [2]): 90% | remaining activity at 100 µM (MINK1; [2]): 61% | remaining activity at 100 µM (CK1γ2; [2]): 6%
